Laboratory results: US20160244405A1, “COMPOSITIONS AND METHODS FOR THE TREATMENT OF HYPERGLYCEMIA AND METABOLIC SYNDROME” (priority 2015, published 2016)
≈ marks a conversion by molar mass, not a printed value. Like-named read-outs stand apart in the source and are kept apart here.

Experiment: Water solubility by adding distilled water in portions until a clear solution
Assay type: physicochemical
Conditions: thermodynamic from solid
Method: The Solubility of the Compound of amino(3,3-dimethylguanidino)methaniminium (S)-2-((5Z,8Z,11Z,14Z,17Z)-icosa-5,8,11,14,17-pentaenamido)-4-methylpentanoate, Example-1 in Water was Compared with that of Eicosapentaenoic Acid (EPA) Measurement of the water solubility of the test compound was accomplished by using methods well known to those skilled in the art. Specifically, to a weighed amount of the test compounds of Example-1 and EPA were taken in separate vials; distilled water was added in small portions until a clear solution was obtained. The water solubility is calculated by dividing the weight of salt, in mg, by the volume of the solution, in mL. The water solubility of the compounds of example-1 compared to EPA alone were as follows: […]

Row | SMILES | solubility (water) | solubility (distilled water, weight of salt in mg divided by volume of solution in mL, read-out: water solubility)
1 | CC/C=C\C/C=C\C/C=C\C/C=C\C/C=C\CCCC(=O)N[C@@H](CC(C)C)C(=O)O [Example-1, amino(3,3-dimethylguanidino)methaniminium (S)-2-((5Z,8Z,11Z,14Z,17Z)-icosa-5,8,11,14,17-pentaenamido)-4-methylpentanoate] | 118 mg/mL (≈ 284 mM) | –
2 | CC/C=C\C/C=C\C/C=C\C/C=C\C/C=C\CCCC(=O)O [EPA, eicosapentaenoic acid] | – | < 0.3 mg/mL
